Assay results reported in patent US7070965B1, “Small molecule anticancer compounds and related production process” (priority 1998, dated 2006).
In brackets after ≈: the same amount, converted by molar mass. Entries after “also recorded” stand apart in the source; their conditions may differ.

Tests used:
[1] = Human clinical studies on the safety of iso-C15; format: in vivo
Method: Chemically synthesized iso-C15 of 99.8% purity were prepared in 0.20 g capsules. Six healthy adult volunteers (4 male, 2 female) of average age 35.6 were divided into three groups, and orally received iso-C15 capsules for thirty days. Low dose group: one case, 0.6 g daily; middle dose group: two cases, 1.2 g daily; high dose group: three cases, 1.8 g daily. The examinations were carried out before, during and after experiment, including physical examinations, blood and urine routine examinations, function of heart, liver and kidney, X-ray radioscopy of lung and subjective symptom.

[2] = tested on: SNU-423 human hepatocellular carcinoma; assay: Cytotoxicity ID50/ID75/ID90, trypan blue dye exclusion; format: cell-based; conditions: 48 hours
Method: (§1) All cells in adherent culture were initiated at 5×10^4 cells/well in 96-well microplates and treated immediately with iso-C15 at different concentrations (0, 1.5, 3.0, 6.0, 15.0, 30.0, and 60.0 μg/ml) diluted with medium. Both untreated and solvent (NaOH and Tween 80) treated cells served as controls. The treated cells were incubated for 48 hours at 37° C. After incubation, the supernatants were removed and the cells were trypsinized and collected prior to viability assessment by trypan blue dye exclusion.
(§2) The ID50, ID75 and ID90 were determined in duplicate in every set of experiments, and each experiment was repeated three times under identical conditions. ID50, ID75 and ID90 were defined as the concentration of iso-C15 required to kill 50, 75 or 90%, respectively, of cells (compared with that in untreated cells) and computed using CalcuSyn for Windows software (Biosoft, Cambridge UK) based on Median Effect method by Dr. T. C. Chou.

[3] = tested on: HCT 116 human colon carcinoma; assay: as above; format: cell-based; conditions: 48 hours
Method: as §1, §2

[4] = tested on: DU-145 human prostate carcinoma; assay: as above; format: cell-based; conditions: 48 hours
Method: as §1, §2

[5] = tested on: H1688 human small cell lung carcinoma; assay: as above; format: cell-based; conditions: 48 hours
Method: as §1, §2

[6] = tested on: MCF-7 human breast adenocarcinoma; assay: as above; format: cell-based; conditions: 48 hours
Method: as §1, §2

[7] = tested on: human hepatocellular carcinoma LCI-D35; assay: Orthotopic nude mice model of human hepatocellular carcinoma LCI-D35; format: in vivo, athymic BALB/c nude mice
Method: 13-methyltetradecanoic acid (iso-C15) was chemically synthesized in the inventor's laboratory, as described in Example 5, infra, (purity of 99.8%), was prepared by dissolving in NaOH solution and then in 0.35% Tween 80 with pH7.5.
Total of 16 male and female athymic BALB/c nude mice between 4 and 5 weeks of age were bred and maintained in specific pathogen free condition.
Human hepatocellular carcinoma LCI-D35 was originally obtained from the primary tumor of a patient. The tumor was implanted and maintained subcutaneously in athymic nude mice. Prior to orthotopic implantation, the tumor was harvested in log phase. The peripheral tumor tissue was collected and minced to small pieces of one cubic millimeter each.
The mice were anesthetized for surgical orthotopic implantation. A small incision was made along the midline of the upper abdomen. The left lobe of the liver was exposed and a small incision was made on the liver surface. Two of the tumor fragments above were sutured into the incision using 8-0 suture. The abdomen was then closed using a 6-0 surgical suture.
The mice bearing orthotopic LCI-D35 were randomly divided into control and test groups of eight mice each at the second day after tumor implantation. The iso-C15 prepared above at dose 70 mg/kg and PBS were administered by gavage once a day in the test and control group, respectively, for 40 days.
All the mice were sacrificed by CO2 inhalation at day-40 after the start of treatment. The weights of primary tumors and bodies were measured. Tissue samples of the primary tumors were processed through standard procedures of hematoxylin and eosin staining for microscopic examination.
The tumor inhibition rates (TIR) were determined by comparing the mean tumor weight of the test groups (T) with that of the control group (C) and expressed as a (C)−T)/C percentage, and were analyzed by Student's test for statistical significance.

[8] = 0.6–1.8 g daily oral, thirty days
[9] = after test, 0.6–1.8 g daily oral, thirty days

For CC(C)CCCCCCCCCCCC(=O)O [iso-C15, 13-methyltetradecanoic acid], the “toxicity / side effects in volunteers” value ([1]; 0.6 g–1.8 g daily for one month, oral) was “without any side effects; also recorded: without any toxicity effects”, the “heart and lung, electrocardiogram (EKG) and X-ray radioscopy” value [1, 8] was “No abnormality” and the urine routine [1, 8] was “no abnormality”. For the same molecule, the ALT [1, 9] was 15.00 ± 10.33 μ/L, the BUN [1, 9] was 6.47 ± 1.72 mmol/L and the GRAN [1, 9] was 3.80 ± 0.89 × 10^9. For the same molecule, the HB [1, 9] was 128 ± 16.9 g/L, the PLT [1, 9] was 232.0 ± 52.1 × 10^9/L and the RBC [1, 9] was 4.62 ± 0.69 × 10^12/L. For the same molecule, the WBC [1, 9] was 7.50 ± 0.71 × 10^9/L, the ALT ([1]; before test, X ± SD, 6 cases) was 15.17 ± 8.70 μ/L and the BUN ([1]; before test, X ± SD, 6 cases) was 6.69 ± 2.14 mmol/L. The GRAN ([1]; before test, X ± SD, 6 cases) was 3.20 ± 0.59 × 10^9, the HB ([1]; before test, X ± SD, 6 cases) was 122 ± 10.4 g/L and the PLT ([1]; before test, X ± SD, 6 cases) was 203.0 ± 33.3 × 10^9/L. For the same molecule, the RBC ([1]; before test, X ± SD, 6 cases) was 4.64 ± 0.40 × 10^12/L, the WBC ([1]; before test, X ± SD, 6 cases) was 5.80 ± 0.95 × 10^9/L and the ID75 [2] was 70.46 ± 9.36 µg/mL (≈ 291 µM). For the same molecule, the ID90 [2] was 120.77 ± 15.82 µg/mL (≈ 498 µM), the ID75 [3] was 67.96 ± 8.25 µg/mL (≈ 280 µM) and the ID90 [3] was 108.65 ± 13.35 µg/mL (≈ 448 µM). For the same molecule, the ID75 [4] was 40.43 ± 5.72 µg/mL (≈ 167 µM), the ID90 [4] was 81.87 ± 8.85 µg/mL (≈ 338 µM) and the ID75 [5] was 35.03 ± 3.59 µg/mL (≈ 145 µM). It also gave an ID90 [5] of 61.37 ± 8.06 µg/mL (≈ 253 µM), an ID75 [6] of 15.99 ± 1.28 µg/mL (≈ 66 µM) and an ID90 [6] of 25.49 ± 1.68 µg/mL (≈ 105 µM). The “signs of toxicity (body weight curve, histology slides)” value ([7]; 70 mg/kg oral) was “no signs of toxicity”, the “TIR (tumor inhibition rate)” value ([7]; 70 mg/kg oral, 40 days) was 64.9% and the “tumor weight mean ± SD” value ([7]; 70 mg/kg oral, 40 days) was 0.071 ± 0.052 g. The “mice in which the implanted tumor did not grow” value ([7]; 70 mg/kg, eight mice per group) was “two”.
